Data taken from US6649643B1, “Imidazol-4-ylmehanols and their use as inhibitors of steroid C17-20 lyase” (Takeda Chemical Industries, Ltd., priority 1999, dated 2003).
Counter-ions that a name gives are not always drawn.

What was measured:
[1] = target: T1, Rat Steroid C17,20-lyase (Rattus norvegicus, UniProt P11715); experiment: Inhibitory activity on a rat steroid C17,20-lyase in vitro; assay type: biochemical; conditions: rat testicular microsomes, 10 nM [1,2-3H]-17-α-hydroxyprogesterone, NADPH, 7 min at 37° C., products testosterone and androstenedione
T1 construct: Testes excised from 13-week old, male SD rats were homogenized, and testicular microsomes were prepared; from tissue; host or cells: testicular microsomes of 13-week old male SD rats
T1 sequence (P11715 1-507): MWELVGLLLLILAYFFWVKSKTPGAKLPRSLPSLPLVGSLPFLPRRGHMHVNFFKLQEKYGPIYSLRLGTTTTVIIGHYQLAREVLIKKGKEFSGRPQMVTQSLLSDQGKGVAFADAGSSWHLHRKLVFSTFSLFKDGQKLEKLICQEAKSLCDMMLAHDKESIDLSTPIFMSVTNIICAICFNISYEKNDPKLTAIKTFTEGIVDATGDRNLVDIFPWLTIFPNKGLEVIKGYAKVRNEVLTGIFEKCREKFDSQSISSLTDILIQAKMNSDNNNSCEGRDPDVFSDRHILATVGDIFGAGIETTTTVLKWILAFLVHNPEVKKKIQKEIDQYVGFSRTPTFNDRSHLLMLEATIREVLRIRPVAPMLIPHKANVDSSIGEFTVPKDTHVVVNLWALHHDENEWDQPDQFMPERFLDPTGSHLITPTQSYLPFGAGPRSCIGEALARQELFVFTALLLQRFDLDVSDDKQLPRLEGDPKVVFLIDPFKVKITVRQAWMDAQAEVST
Procedure: Assay of Inhibitory Activity on a Rat Steroid C17,20-lyase in Vitro
Inhibitory activity was determined according to the method described in The Prostate, vol. 26, 140-150(1995) with some modifications.
Testes excised from 13-week old, male SD rats were homogenized, and testicular microsomes were prepared by a series of centrifugation. The microsome protein (7 μg/10 μl) was added to 101 μl of 100 mM phosphate buffer (pH 7.4) in which 10 nM (final concentration) [1,2-3H]-17-α-hydroxyprogesterone, NADPH, and test compounds were dissolved. The reaction mixture was incubated for 7 min at 37° C., terminated by addition of 40 μl of ethyl acetate, and briefly centrifuged. The substrate and the products (testosterone and androstenedione) in the upper phase were separated by silica gel thin layer chromatography. Detection of the spots and measurement of the radioactivity were performed by a BAS 2000 Bioimage analyzer. The concentration of the test compounds necessary to reduce the concentration of the products by 50% (The concentration in the control group in which no test compound was added was taken as 100%) was calculated, and shown in Table 1.

[2] = tested on: testosterone biosynthesis; experiment: Inhibitory activity on testosterone biosynthesis in rats; assay type: in vivo, rat; conditions: male SD rats, oral, 50 mg/kg, serum testosterone 2 h later by radioimmunoassay, percentage of control group
Procedure: Assay of Inhibitory Activity on Testosterone Biosynthesis in Rats
Test compounds were orally administered to 9-week old, male SD (Sprague-Dawley rats at a dose of 50 mg/kg. Two-h later blood was taken and testosterone concentration in serum was measured by radioimmunoassay. The percentage of the testosterone concentration of the groups of rats, which received test compounds, to that of the control group was calculated, and regarded as the inhibitory activity.

Row | SMILES | IC50 [1] [µM] | Inhibitory activity on testosterone bioxynthesis (T/C, %) [2] [%]
1 | CC(C)C(O)(c1ccc2cc(-c3ccco3)ccc2c1)c1c[nH]cn1 (stereo not drawn) [Example 2, 1-(6-(2-Furyl)-2-naphthyl)-1-(1H-imidazol-4-yl)-2-methyl-1-propanol] | 0.028 | 
2 | CC(C)C(O)(c1ccc2cc(-c3cn[nH]c3)ccc2c1)c1c[nH]cn1 (stereo not drawn) [Example 6, 1-(1H-Imidazol-4-yl)-2-methyl-1-(6-(1H-pyrazol-4-yl)-2-naphthyl)-1-propanol] | 0.015 | 10
3 | CC(C)C(O)(c1ccc2cc(-c3cnco3)ccc2c1)c1c[nH]cn1 (stereo not drawn) [Example 7, 1-(1H-Imidazol-4-yl)-2-methyl-1-(6-(1,3-oxazol-5-yl)-2-naphthyl)-1-propanol] | 0.014 | 
4 | CNC(=O)c1ccc2cc(C(O)(c3c[nH]cn3)C(C)C)ccc2c1 (stereo not drawn) [Example 9, 6-(1-Hydroxy-1-(1H-imidazol-4-yl)-2-methyl-propyl)-N-methyl-2-naphthamide] | 0.0061 | 4.5
5 | CCC(O)(c1ccc2c3c(ccc2c1)OCC3)c1c[nH]cn1 (stereo not drawn) [Example 18, 1-(1,2-Dihydronaphtho[2,1-b]furan-7-yl)-1-(1H-imidazol-4-yl)-1-propanol] | 0.018 | 7.4
6 | COc1cc2ccc([C@](O)(c3c[nH]cn3)C(C)C)cc2cc1OC [Example 22, (S)-(−)-1-(6,7-Dimethoxy-2-naphthyl)-1-(1H-imidazol-4-yl)-2-methyl-1-propanol.fumaric Acid Salt] | 0.0033 | 
